The values below come from ChEMBL document CHEMBL4308908, “Lamellarin-inspired potent topoisomerase I inhibitors with the unprecedented benzo[g][1]benzopyrano[4,3-b]indol-6(13H)-one scaffold” (Bioorg Med Chem, 2019).

Activity calls are given as the source filed them. No cut-off for these calls is given here.

In one experiment the test system is DU-145. The experiment can be described thus: Antiproliferative activity against human DU145 cells after 48 hrs by SRB assay. It counts as functional. The note with it: DU-145, 48 h.
For the next experiment, the system named is NCI-H226. As to the kind of experiment: Antiproliferative activity against human NCI-H226 cells after 48 hrs by SRB assay. It counts as functional. The note with it: NCI-H226, 48 h.
The nature of experiment [1]: Antiproliferative activity against human HBC5 cells after 48 hrs by SRB assay. The conditions noted are these: HBC5, 48 h. It counts as functional. Background: Sulforhodamine B stains cellular protein and so reports cell mass.
A further experiment deals with HCC 2998. The experiment can be described thus: Antiproliferative activity against human HCC2998 cells after 48 hrs by SRB assay. It counts as functional. The conditions noted are these: HCC 2998, 48 h.
Experiment [2] addresses T1, DNA topoisomerase I (Bos taurus) (UniProt F1MN93).
T1 sequence (whole entry): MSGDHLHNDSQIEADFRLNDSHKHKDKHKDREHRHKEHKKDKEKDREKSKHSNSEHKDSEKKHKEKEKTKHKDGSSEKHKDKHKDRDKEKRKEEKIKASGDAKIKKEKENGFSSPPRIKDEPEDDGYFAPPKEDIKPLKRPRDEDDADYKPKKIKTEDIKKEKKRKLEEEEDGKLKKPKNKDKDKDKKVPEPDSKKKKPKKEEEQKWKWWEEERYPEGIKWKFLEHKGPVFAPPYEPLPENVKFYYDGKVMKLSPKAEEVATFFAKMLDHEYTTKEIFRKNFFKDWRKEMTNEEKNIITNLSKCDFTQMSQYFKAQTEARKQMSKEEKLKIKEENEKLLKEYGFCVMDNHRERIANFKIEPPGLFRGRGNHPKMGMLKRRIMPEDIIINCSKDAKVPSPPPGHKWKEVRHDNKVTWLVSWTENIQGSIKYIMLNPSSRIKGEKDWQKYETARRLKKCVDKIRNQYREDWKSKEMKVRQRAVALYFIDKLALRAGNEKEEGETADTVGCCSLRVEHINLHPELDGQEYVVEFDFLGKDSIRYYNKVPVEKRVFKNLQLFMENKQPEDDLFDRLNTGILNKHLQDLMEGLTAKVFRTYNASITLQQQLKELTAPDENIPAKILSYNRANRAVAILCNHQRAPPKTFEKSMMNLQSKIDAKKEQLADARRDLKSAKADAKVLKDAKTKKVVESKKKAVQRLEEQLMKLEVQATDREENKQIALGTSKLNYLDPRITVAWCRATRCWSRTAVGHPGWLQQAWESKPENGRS
As to the kind of experiment: Inhibition of calf thymus DNA topoisomerase 1 assessed as reduction in enzyme-mediated relaxation of supercoiled pBR322 plasmid DNA at 10 uM after 30 mins by agarose gel electrophoresis.

In another experiment the test system is MKN-45. As to the kind of experiment: Antiproliferative activity against human MKN45 cells after 48 hrs by SRB assay. It counts as functional. The conditions noted are these: MKN-45, 48 h.
For the next experiment, the system named is OVCAR-8. As to the kind of experiment: Antiproliferative activity against human OVCAR8 cells after 48 hrs by SRB assay. It counts as functional. The note with it: OVCAR-8, 48 h.
The subject of another experiment is SNB-78. The experiment can be described thus: Antiproliferative activity against human SNB78 cells after 48 hrs by SRB assay. The conditions noted are these: SNB-78, 48 h. It counts as functional.
The subject of the next experiment is MKN-1. The experiment can be described thus: Antiproliferative activity against human MKN1 cells after 48 hrs by SRB assay. The note with it: MKN-1, 48 h. It counts as functional.
A further experiment has as its system HCT-15. As to the kind of experiment: Antiproliferative activity against human HCT15 cells after 48 hrs by SRB assay. It counts as functional. The conditions noted are these: HCT-15, 48 h.

As for `COc1cc2c(ccc3c4c(=O)oc5cc(OC(=O)[C@@H](N)C(C)C)c(OC)cc5c4n(C)c23)cc1OC(=O)[C@@H](N)C(C)C.O=C(O)C(F)(F)F.O=C(O)C(F)(F)F`, the GI50 is 3.2 nM with DU-145 (read-out: GI50); 3.16 nM in the experiment with DU-145 (read-out: pGI50 (converted)); 89.1 nM in the experiment on NCI-H226; 138 nM in experiment [1]; 91.2 nM in the experiment with HCC 2998; 105 nM in the experiment with MKN-45. In addition, the GI50 was 13.5 nM in the experiment on OVCAR-8, 282 nM in the experiment with SNB-78, 44.7 nM with MKN-1 and 58.9 nM in the experiment on HCT-15. For the same molecule, the inhibition entry in experiment [2] was “Active”.
